Data reported in US8513239B2, “Chiral cis-imidazolines” (Hoffmann-La Roche Inc., priority 2007, dated 2013).

Target: interaction between p53 and MDM2 proteins (Homo sapiens, UniProt Q00987)
Experiment: HTRF assay of inhibition of p53-MDM2 interaction (GST-MDM2 binding to biotinylated p53 peptide)
Details: recombinant GST-tagged MDM2, biotinylated p53 peptide, 0.2% BSA
Method: The ability of the compounds to inhibit the interaction between p53 and MDM2 proteins was measured by an HTRF (homogeneous time-resolved fluorescence) assay in which recombinant GST-tagged MDM2 binds to a peptide that resembles the MDM2-interacting region of p53 (Lane et al.). Binding of GST-MDM2 protein and p53-peptide (biotinylated on its N-terminal end) is registered by the FRET (fluorescence resonance energy transfer) between Europium (Eu)-labeled anti-GST antibody and streptavidin-conjugated Allophycocyanin (APC).
Test is performed in black flat-bottom 384-well plates (Costar) in a total volume of […] containing:90 nM biotinylate peptide, 160 ng/ml GST-MDM2, 20 nM streptavidin-APC (PerkinElmerWallac), 2 nM Eu-labeled anti-GST-antibody (PerkinElmerWallac), 0.2% bovine serum albumin (BSA), 1 mM dithiothreitol (DTT) and 20 mM […] (TBS) buffer as follows: Add 10 uL of GST-MDM2 (640 ng/ml working solution) in reaction buffer to each well. Add 10 uL diluted compounds (1:5 dilution in reaction buffer) to each well, mix by shaking. Add 20 uL biotinylated p53 peptide (180 nM working solution) in reaction buffer to each well and mix on shaker. Incubate at 37° C. for 1 h. Add 20 uL streptavidin-APC and Eu-anti-GST antibody mixture (6 nM Eu-anti-GST and 60 nM streptavidin-APC working solution) in TBS buffer with 0.2% BSA, shake at room temperature for 30 minutes and read using a TRF-capable plate reader at 665 and 615 nm (Victor 5, Perkin ElmerWallac). If not specified, the reagents were purchased from Sigma Chemical Co.

Chain of interaction between p53 and MDM2 proteins (Q00987 whole entry): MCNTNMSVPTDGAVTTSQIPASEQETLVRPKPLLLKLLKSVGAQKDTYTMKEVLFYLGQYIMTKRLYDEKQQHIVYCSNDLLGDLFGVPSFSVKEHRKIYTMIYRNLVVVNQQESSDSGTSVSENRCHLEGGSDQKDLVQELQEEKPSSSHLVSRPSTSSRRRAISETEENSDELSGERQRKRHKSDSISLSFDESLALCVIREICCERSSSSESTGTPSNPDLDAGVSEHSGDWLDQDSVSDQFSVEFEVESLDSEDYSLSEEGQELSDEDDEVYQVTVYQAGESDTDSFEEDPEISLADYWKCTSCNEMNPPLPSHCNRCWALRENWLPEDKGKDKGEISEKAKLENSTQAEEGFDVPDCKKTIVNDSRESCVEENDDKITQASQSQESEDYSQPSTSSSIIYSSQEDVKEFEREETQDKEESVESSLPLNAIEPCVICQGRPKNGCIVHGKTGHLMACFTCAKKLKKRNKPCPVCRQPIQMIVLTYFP

Row | SMILES | IC50
1 | CCOc1nc(C(C)(C)C)ccc1C1=N[C@@](C)(c2ccc(Cl)cc2)[C@@](C)(c2ccc(Cl)cc2)N1C(=O)N1CCN(CCCS(C)(=O)=O)CC1 (racemic) [Example 9, Rac-[(4S*,5R*)-2-(6-tert-Butyl-2-ethoxy-pyridin-3-yl)-4,5-bis-(4-chloro-phenyl)-4,5-dimethyl-4,5-dihydro-imidazol-1-yl]-[4-(3-methanesulfonyl-propyl)-piperazin-1-yl]-methanone] | 178 nM
2 | CCOc1nc(C(C)(C)C)ncc1C1=N[C@@](C)(c2ccc(Cl)cc2)[C@@](C)(c2ccc(Cl)cc2)N1C(=O)N1CCC(N2CCCC2)CC1 (racemic) [Example 29, [2-(2-tert-Butyl-4-ethoxy-pyrimidin-5-yl)-4,5-bis-(4-chloro-phenyl)-4,5-dimethyl-4,5-dihydro-imidazol-1-yl]-(4-pyrrolidin-1-yl-piperidin-1-yl)-methanone] | 252 nM
3 | CCOc1nc(C(C)(C)C)ncc1C1=N[C@@](C)(c2ccc(Cl)cc2)[C@@](C)(c2ccc(Cl)cc2)N1C(=O)N1CCN(CC(=O)N2CCOCC2)CC1 (racemic) [Example 40, Rac-2-{4-[(4S*,5R*)-2-(2-tert-Butyl-4-ethoxy-pyrimidin-5-yl)-4,5-bis-(4-chloro-phenyl)-4,5-dimethyl-4,5-dihydro-imidazole-1-carbonyl]-piperazin-1-yl}-1-morpholin-4-yl-ethanone] | 77 nM

Now from value to compound:

Row | IC50 | SMILES
4 | 46 nM | CCOc1nc(C(C)(C)C)ncc1C1=N[C@@](C)(c2ccc(Cl)cc2)[C@@](C)(c2ccc(Cl)cc2)N1C(=O)N1CCN(C2CCS(=O)(=O)CC2)CC1 [Example 4, [(4S,5R)-2-(2-tert-Butyl-4-ethoxy-pyrimidin-5-yl)-4,5-bis-(4-chloro-phenyl)-4,5-dimethyl-4,5-dihydro-imidazol-1-yl]-[4-(1,1-dioxo-hexahydro-thiopyran-4-yl)-piperazin-1-yl]-methanone]
5 | 31 nM | CCOc1nc(C(C)(C)C)ncc1C1=N[C@@](C)(c2ccc(Cl)cc2)[C@@](C)(c2ccc(Cl)cc2)N1C(=O)N1CCN(CCOCCO)CC1 [Example 22, [(4S,5R)-2-(2-tert-Butyl-4-ethoxy-pyrimidin-5-yl)-4,5-bis-(4-chloro-phenyl)-4,5-dimethyl-4,5-dihydro-imidazol-1-yl]-{4-[2-(2-hydroxy-ethoxy)-ethyl]-piperazin-1-yl}-methanone]
